# pEC50, pIC50, pKi: −log10 of the molar value. Bridge positions count the residues as written; N and C are the ends. Square brackets hold non-standard residues; d marks the D form. Peptide text beside a SMILES is read from it. NMeW = CN[C@@H](Cc1c[nH]c2ccccc12)C(=O)O; NMeR = CN[C@@H](CCCNC(=N)N)C(=O)O
# Tests used:
# Melanocortin receptor 3 [1] = target: T1, Melanocortin receptor 3 (Homo sapiens, UniProt P41968); experiment: Agonist activity at human melanocortin receptor 3 expressed in human T-REx-293 cells assessed as stimulation of intracellular cAMP accumulation incubated for 45 mins by LANCE cAMP assay; type: functional, cell-based
# T1 sequence (P41968 whole entry): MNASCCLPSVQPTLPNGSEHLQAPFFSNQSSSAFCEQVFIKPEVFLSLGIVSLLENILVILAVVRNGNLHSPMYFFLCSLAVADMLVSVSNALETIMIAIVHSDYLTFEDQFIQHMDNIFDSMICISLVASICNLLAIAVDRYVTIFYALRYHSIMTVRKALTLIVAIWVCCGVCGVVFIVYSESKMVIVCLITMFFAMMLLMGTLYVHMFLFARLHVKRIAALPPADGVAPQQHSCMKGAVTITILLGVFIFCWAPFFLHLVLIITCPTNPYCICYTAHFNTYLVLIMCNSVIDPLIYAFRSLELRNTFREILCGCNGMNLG
# Melanocortin receptor 5 = Melanocortin receptor 5 (Homo sapiens, UniProt P33032); experiment: Displacement of [125I]-NDP-alpha-MSH from human MC5R expressed in HEK2936E cell membrane measured after 16-23 hrs by 1450 microbeta trilux scintillation proximity assay; type: cell membranes
# Sequence of Melanocortin receptor 5 (P33032 whole entry): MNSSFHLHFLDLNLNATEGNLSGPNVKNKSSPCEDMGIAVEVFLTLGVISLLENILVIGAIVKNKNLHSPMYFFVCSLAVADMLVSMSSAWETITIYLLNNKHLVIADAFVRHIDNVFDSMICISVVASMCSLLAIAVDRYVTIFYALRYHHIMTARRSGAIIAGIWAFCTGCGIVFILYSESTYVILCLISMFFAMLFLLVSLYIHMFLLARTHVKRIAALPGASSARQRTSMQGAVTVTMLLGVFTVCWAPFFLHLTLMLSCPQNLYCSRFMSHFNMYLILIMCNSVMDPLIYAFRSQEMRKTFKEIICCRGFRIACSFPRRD
# [2] = target: T2, Melanocyte-stimulating hormone receptor (Homo sapiens, UniProt Q01726); experiment: Agonist activity at human melanocortin receptor 1 expressed in human T-Rex-293 cells assessed as stimulation of intracellular cAMP accumulation incubated for 45 mins by LANCE cAMP assay; type: functional, cell-based
# T2 sequence (Q01726 whole entry): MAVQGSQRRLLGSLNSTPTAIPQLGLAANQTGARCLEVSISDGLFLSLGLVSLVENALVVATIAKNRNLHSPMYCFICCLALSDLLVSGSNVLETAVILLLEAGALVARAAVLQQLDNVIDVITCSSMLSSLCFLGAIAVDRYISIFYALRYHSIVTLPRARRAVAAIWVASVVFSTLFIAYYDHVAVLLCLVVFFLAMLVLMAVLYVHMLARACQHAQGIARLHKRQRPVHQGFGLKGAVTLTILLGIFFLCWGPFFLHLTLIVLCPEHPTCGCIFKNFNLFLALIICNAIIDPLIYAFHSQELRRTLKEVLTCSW
# [3] = target: T2, Melanocyte-stimulating hormone receptor; experiment: Displacement of [125I]-NDP-alpha-MSH from human MC1R expressed in HEK2936E cell membrane measured after 16-23 hrs by 1450 microbeta trilux scintillation proximity assay; type: cell membranes
# Melanocortin receptor 3 [4] = target: T1, Melanocortin receptor 3; experiment: Displacement of [125I]-NDP-alpha-MSH from human MC3R expressed in HEK2936E cell membrane measured after 16-23 hrs by 1450 microbeta trilux scintillation proximity assay; type: cell membranes
# Melanocortin receptor 4 [5] = target: T3, Melanocortin receptor 4 (Homo sapiens, UniProt P32245); experiment: Agonist activity at human melanocortin receptor 4 expressed in human T-REx-293 cells using high doxycycline assessed as stimulation of intracellular cAMP accumulation incubated for 45 mins by LANCE cAMP assay; type: functional
# T3 sequence (P32245 whole entry): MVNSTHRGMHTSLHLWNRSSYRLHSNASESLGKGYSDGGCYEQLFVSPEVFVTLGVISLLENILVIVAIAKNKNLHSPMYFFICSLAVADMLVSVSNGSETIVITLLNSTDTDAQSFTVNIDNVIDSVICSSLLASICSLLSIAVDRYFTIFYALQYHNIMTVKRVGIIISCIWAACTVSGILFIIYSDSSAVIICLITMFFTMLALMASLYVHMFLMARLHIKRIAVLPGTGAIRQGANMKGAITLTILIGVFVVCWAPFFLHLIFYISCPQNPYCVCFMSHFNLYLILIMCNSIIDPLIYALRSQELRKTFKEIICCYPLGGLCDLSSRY
# Melanocortin receptor 4 [6] = target: T3, Melanocortin receptor 4; experiment: Agonist activity at human melanocortin receptor 4 expressed in human T-REx-293 cells using low doxycycline assessed as stimulation of intracellular cAMP accumulation incubated for 45 mins by LANCE cAMP assay; type: functional, cell-based
# Melanocortin receptor 4 [7] = target: T3, Melanocortin receptor 4; experiment: Displacement of [125I]-NDP-alpha-MSH from human MC4R expressed in HEK2936E cell membrane measured after 16-23 hrs by 1450 microbeta trilux scintillation proximity assay; type: cell membranes
SMILES,pEC50 (Melanocortin receptor 3 [1]),pIC50 (Melanocortin receptor 5),pEC50 [2],pKi [3],pKi (Melanocortin receptor 3 [4]),pEC50 (Melanocortin receptor 4 [5]),pEC50 (Melanocortin receptor 4 [6]),pKi (Melanocortin receptor 4 [7])
CC[C@H](C)[C@@H]1NC(=O)[C@@H]2CCCN2C(=O)[C@H](Cc2c[nH]c3ccccc23)NC(=O)[C@H](CCCNC(=N)N)NC(=O)[C@@H](Cc2ccccc2)NC(=O)[C@H](Cc2c[nH]cn2)NC(=O)[C@H]([C@@H](C)O)NC(=O)[C@@H]2CSSC[C@H](NC1=O)C(=O)N[C@@H](Cc1c[nH]cn1)C(=O)N[C@H](Cc1ccccc1)C(=O)N[C@@H](CCCNC(=N)N)C(=O)N[C@@H](Cc1c[nH]c3ccccc13)C(=O)N[C@@H](CCCNC(=N)N)C(=O)N2,7.76,6.76,9.86,8.83,6.57,,,
CC[C@H](C)[C@@H]1NC(=O)[C@@H]2CCCN2C(=O)[C@H](Cc2c[nH]c3ccccc23)NC(=O)[C@H](CCCNC(=N)N)N(C)C(=O)[C@@H](Cc2ccccc2)NC(=O)[C@H](Cc2c[nH]cn2)NC(=O)[C@H](CC(=O)O)NC(=O)[C@@H]2CSSC[C@H](NC1=O)C(=O)N[C@@H](Cc1c[nH]cn1)C(=O)N[C@H](Cc1ccccc1)C(=O)N(C)[C@@H](CCCNC(=N)N)C(=O)N(C)[C@@H](Cc1c[nH]c3ccccc13)C(=O)N[C@@H](CCCNC(=N)N)C(=O)N2,7.95,5.70,9.96,9.10,6.32,8.89,7.64,6.86
CC[C@H](C)[C@@H]1NC(=O)[C@@H]2CCCN2C(=O)[C@H](Cc2c[nH]c3ccccc23)NC(=O)[C@H](CCCNC(=N)N)N(C)C(=O)[C@@H](Cc2ccc3ccccc3c2)NC(=O)[C@@H]2CCCN2C(=O)[C@@H]2CCCN2C(=O)[C@@H]2CSSC[C@H](NC1=O)C(=O)N[C@@H](Cc1c[nH]cn1)C(=O)N[C@H](Cc1ccccc1)C(=O)N[C@@H](CCCNC(=N)N)C(=O)N[C@@H](Cc1c[nH]c3ccccc13)C(=O)N[C@@H](C)C(=O)N2,7.80,6.89,8.88,8.43,7.00,,,
CC[C@H](C)[C@@H]1NC(=O)[C@@H]2CCCN2C(=O)[C@H](Cc2c[nH]c3ccccc23)NC(=O)[C@H](CCCNC(=N)N)N(C)C(=O)[C@@H](Cc2ccccc2)NC(=O)[C@H](Cc2c[nH]cn2)NC(=O)[C@H]([C@@H](C)O)NC(=O)[C@@H](NC(C)=O)CSSC[C@@H](C(N)=O)NC1=O,7.40,4.95,8.06,6.71,5.40,8.59,7.22,6.46
CC[C@H](C)[C@@H]1NC(=O)[C@@H]2CCCN2C(=O)[C@@H]2CCCN2C(=O)[C@H]([C@@H](C)CC)NC(=O)[C@H](CO)NC(=O)[C@H](C)NC(=O)[C@H]([C@@H](C)O)NC(=O)[C@@H]2CSSC[C@H](NC1=O)C(=O)N[C@@H](Cc1c[nH]cn1)C(=O)N[C@H](Cc1ccccc1)C(=O)N(C)[C@@H](CCCNC(=N)N)C(=O)N(C)[C@@H](Cc1c[nH]c3ccccc13)C(=O)N[C@@H](CCCNC(=N)N)C(=O)N2 (cyclo(CTASIPPICH[dF][NMeR][NMeW]R); disulfide 1-9),6.89,6.14,9.12,,< 6.00,7.23,< 6.00,< 6.00
C[C@@H]1NC(=O)[C@H](Cc2c[nH]c3ccccc23)NC(=O)[C@H](CCCNC(=N)N)NC(=O)[C@@H](Cc2ccccc2)NC(=O)[C@H](Cc2c[nH]cn2)NC(=O)[C@@H]2CSSC[C@H](NC1=O)C(=O)N[C@@H]([C@@H](C)O)C(=O)N[C@@H](Cc1c[nH]cn1)C(=O)N[C@H](Cc1ccccc1)C(=O)N(C)[C@@H](CCCNC(=N)N)C(=O)N[C@@H](Cc1c[nH]c3ccccc13)C(=O)N1CCC[C@H]1C(=O)N[C@@H](C)C(=O)N2,8.39,6.26,8.97,8.09,6.87,,,
CC[C@H](C)[C@@H]1NC(=O)[C@@H]2CCCN2C(=O)[C@H](Cc2c[nH]c3ccccc23)NC(=O)[C@H](CCCNC(=N)N)N(C)C(=O)[C@@H](Cc2ccccc2)NC(=O)[C@H](Cc2c[nH]cn2)NC(=O)[C@H]([C@@H](C)O)NC(=O)[C@@H]2CSSC[C@H](NC1=O)C(=O)N[C@@H](C)C(=O)N[C@H](Cc1ccccc1)C(=O)N[C@@H](CCCNC(=N)N)C(=O)N[C@@H](Cc1c[nH]c3ccccc13)C(=O)N[C@@H](CCCNC(=N)N)C(=O)N2,7.70,6.79,8.44,7.71,6.42,9.34,8.59,7.99
CC[C@H](C)[C@@H]1NC(=O)[C@@H]2CCCN2C(=O)[C@H](Cc2c[nH]c3ccccc23)NC(=O)[C@H](CCCNC(=N)N)N(C)C(=O)[C@@H](Cc2ccccc2)NC(=O)[C@H](Cc2c[nH]cn2)NC(=O)[C@H](CCC(=O)O)NC(=O)[C@@H]2CSSC[C@H](NC1=O)C(=O)N[C@@H](Cc1c[nH]cn1)C(=O)N[C@H](Cc1ccccc1)C(=O)N(C)[C@@H](CCCNC(=N)N)C(=O)N(C)[C@@H](Cc1c[nH]c3ccccc13)C(=O)N[C@@H](CCCNC(=N)N)C(=O)N2,8.45,6.42,10.08,9.83,6.98,8.56,7.34,7.19
CC[C@H](C)[C@@H]1NC(=O)[C@@H]2CCCN2C(=O)[C@H](Cc2c[nH]c3ccccc23)NC(=O)[C@H](CCCNC(=N)N)N(C)C(=O)[C@@H](Cc2ccccc2)NC(=O)[C@H](Cc2c[nH]cn2)NC(=O)[C@H]([C@@H](C)O)NC(=O)[C@@H]2CSSC[C@H](NC1=O)C(=O)N[C@@H](Cc1c[nH]cn1)C(=O)N[C@H](Cc1ccccc1)C(=O)N[C@@H](CCCCN)C(=O)N[C@@H](Cc1c[nH]c3ccccc13)C(=O)N[C@@H](C)C(=O)N2,7.41,6.20,9.08,7.93,6.15,8.50,7.28,7.14
CC[C@H](C)[C@@H]1NC(=O)[C@@H]2CCCN2C(=O)[C@H](Cc2c[nH]c3ccccc23)NC(=O)[C@H](CCCNC(=N)N)N(C)C(=O)[C@@H](Cc2ccccc2)NC(=O)[C@H](Cc2c[nH]cn2)NC(=O)[C@H]([C@@H](C)O)NC(=O)[C@@H]2CSSC[C@H](NC1=O)C(=O)N[C@@H](Cc1c[nH]cn1)C(=O)N[C@H](Cc1ccccc1)C(=O)N[C@@H](CCCNC(=N)N)C(=O)N[C@@H](C)C(=O)N[C@@H](CCCNC(=N)N)C(=O)N2,7.79,5.75,9.37,8.81,6.05,8.92,7.55,7.30
C[C@@H]1NC(=O)[C@H](Cc2c[nH]c3ccccc23)NC(=O)[C@H](CCCNC(=N)N)NC(=O)[C@@H](Cc2ccccc2)NC(=O)[C@H](Cc2c[nH]cn2)NC(=O)[C@@H]2CSSC[C@H](NC1=O)C(=O)N[C@@H]([C@@H](C)O)C(=O)N[C@@H](Cc1c[nH]cn1)C(=O)N[C@H](Cc1ccccc1)C(=O)N(C)[C@@H](CCCNC(=N)N)C(=O)N[C@@H](Cc1c[nH]c3ccccc13)C(=O)N1CCC[C@H]1C(=O)N[C@@H](Cc1ccccc1)C(=O)N2,8.18,6.29,9.16,8.40,6.52,9.27,8.17,7.44
CC[C@H](C)[C@@H]1NC(=O)[C@@H]2CCCN2C(=O)[C@H](Cc2c[nH]c3ccccc23)NC(=O)[C@H](CCCNC(=N)N)N(C)C(=O)[C@@H](Cc2ccccc2)NC(=O)[C@H](Cc2c[nH]cn2)NC(=O)[C@H]([C@@H](C)O)NC(=O)[C@@H]2CSSC[C@H](NC1=O)C(=O)N[C@@H](Cc1c[nH]cn1)C(=O)N[C@H](Cc1ccccc1)C(=O)N[C@@H](CCCNC(=N)N)C(=O)N[C@@H](Cc1c[nH]c3ccccc13)C(=O)N[C@@H](CCCNC(=N)N)C(=O)N2,8.11,6.76,9.87,8.95,6.41,,,

# — ChEMBL document CHEMBL5034014, “Melanocortin 1 Receptor Agonists Based on a Bivalent, Bicyclic Peptide Framework” (J Med Chem, 2021)
